Measurements: the NIST ThermoML archive (doi:10.1021/je700152c)
Numbers after ± are expanded uncertainties.

Experiment: molar heat capacity at saturation pressure; xn = mol fraction of the nth substance listed

CCCCn1cc[n+](C)c1.Cc1ccc(S(=O)(=O)[O-])cc1 [1-butyl-3-methylimidazolium tosylate] + O
Conditions | molar heat capacity [J/K/mol]
272.47 K, Crystal, x1 = 0.83 | 347 ± 3.1
272.55 K, Metastable crystal, x1 = 0.83 | 367.59 ± 3.4
272.66 K, Crystal, x1 = 0.37 | 265.28 ± 2.5
272.99 K, Crystal, x1 = 0.3 | 264.76 ± 2.5
273.8 K, Crystal, x1 = 0.37 | 270.96 ± 2.7
273.97 K, Crystal, x1 = 0.3 | 269.83 ± 2.6
274.39 K, Metastable crystal, x1 = 0.83 | 371.51 ± 3.4
274.51 K, Crystal, x1 = 0.83 | 353.78 ± 3.4
274.92 K, Crystal, x1 = 0.37 | 276.89 ± 2.7
274.93 K, Crystal, x1 = 0.3 | 276.18 ± 2.6
275.88 K, Crystal, x1 = 0.3 | 281.68 ± 2.7
276.03 K, Crystal, x1 = 0.37 | 283.2 ± 2.8
276.22 K, Metastable crystal, x1 = 0.83 | 375.42 ± 3.4
276.53 K, Crystal, x1 = 0.83 | 361.08 ± 3.4
276.82 K, Crystal, x1 = 0.3 | 288.23 ± 2.7
277.13 K, Crystal, x1 = 0.37 | 289.76 ± 2.8
277.75 K, Crystal, x1 = 0.3 | 295.53 ± 2.9
278.04 K, Metastable crystal, x1 = 0.83 | 379.33 ± 3.4
278.22 K, Crystal, x1 = 0.37 | 296.83 ± 2.8
278.52 K, Crystal, x1 = 0.83 | 369.42 ± 3.4
278.68 K, Crystal, x1 = 0.3 | 301.77 ± 2.9
279.29 K, Crystal, x1 = 0.37 | 304.4 ± 2.9
279.59 K, Crystal, x1 = 0.3 | 309.59 ± 3
279.86 K, Metastable crystal, x1 = 0.83 | 383.76 ± 3.6
280.35 K, Crystal, x1 = 0.37 | 312.6 ± 2.9
280.48 K, Crystal, x1 = 0.3 | 318.37 ± 3
280.49 K, Crystal, x1 = 0.83 | 379.59 ± 3.4
281.36 K, Crystal, x1 = 0.3 | 326.4 ± 3.1
281.39 K, Crystal, x1 = 0.37 | 321.44 ± 3
281.67 K, Metastable crystal, x1 = 0.83 | 388.19 ± 3.6
282.23 K, Crystal, x1 = 0.3 | 334.33 ± 3.2
282.42 K, Crystal, x1 = 0.37 | 331.41 ± 3.2
282.42 K, Crystal, x1 = 0.83 | 391.58 ± 3.6
283.09 K, Crystal, x1 = 0.3 | 343.11 ± 3.2
283.44 K, Crystal, x1 = 0.37 | 340.37 ± 3.2
283.47 K, Metastable crystal, x1 = 0.83 | 393.14 ± 3.6
283.93 K, Crystal, x1 = 0.3 | 351.57 ± 3.3
284.33 K, Crystal, x1 = 0.83 | 406.44 ± 3.6
284.44 K, Crystal, x1 = 0.37 | 351.47 ± 3.3
284.76 K, Crystal, x1 = 0.3 | 360.66 ± 3.4
285.26 K, Metastable crystal, x1 = 0.83 | 399.66 ± 3.6
285.41 K, Crystal, x1 = 0.37 | 362.2 ± 3.4
285.58 K, Crystal, x1 = 0.3 | 372.5 ± 3.5
286.18 K, Crystal, x1 = 0.83 | 423.91 ± 3.9
286.37 K, Crystal, x1 = 0.3 | 390.05 ± 3.6
286.38 K, Crystal, x1 = 0.37 | 375.33 ± 3.4
287.02 K, Metastable crystal, x1 = 0.83 | 407.22 ± 3.6
287.16 K, Crystal, x1 = 0.3 | 386.46 ± 3.5
287.33 K, Crystal, x1 = 0.37 | 388.2 ± 3.5
287.96 K, Crystal, x1 = 0.3 | 383.82 ± 3.5
288 K, Crystal, x1 = 0.83 | 449.2 ± 4.2
288.25 K, Crystal, x1 = 0.37 | 402.21 ± 3.7
288.77 K, Crystal, x1 = 0.3 | 372.08 ± 3.5
288.84 K, Metastable crystal, x1 = 0.83 | 414.26 ± 3.6
289.16 K, Crystal, x1 = 0.37 | 417.23 ± 3.8
289.6 K, Crystal, x1 = 0.3 | 343.95 ± 3.3
289.76 K, Crystal, x1 = 0.83 | 475.27 ± 4.2
290.05 K, Crystal, x1 = 0.37 | 434.26 ± 3.9
290.49 K, Crystal, x1 = 0.3 | 303.04 ± 3.1
290.69 K, Metastable crystal, x1 = 0.83 | 420.52 ± 3.9
290.92 K, Crystal, x1 = 0.37 | 452.18 ± 4
291.45 K, Crystal, x1 = 0.3 | 258.1 ± 2.6
291.45 K, Crystal, x1 = 0.83 | 514.89 ± 4.7
291.76 K, Crystal, x1 = 0.37 | 471.62 ± 4.3
292.49 K, Crystal, x1 = 0.3 | 228.39 ± 2.3
292.58 K, Crystal, x1 = 0.37 | 492.69 ± 4.4
292.6 K, Metastable crystal, x1 = 0.83 | 426.25 ± 3.9
293.09 K, Crystal, x1 = 0.83 | 549.83 ± 5
293.38 K, Crystal, x1 = 0.37 | 514.4 ± 4.7
293.57 K, Crystal, x1 = 0.3 | 214.64 ± 2.2
294.16 K, Crystal, x1 = 0.37 | 540.9 ± 4.8
294.56 K, Metastable crystal, x1 = 0.83 | 426.77 ± 3.9
